Counter-ions that a name gives are not always drawn. Like-named read-outs stand apart in the source and are kept apart here.

From patent US20240246913A1, “2-CARBOXYL-INDOLE INHIBITORS OF METALLO-BETA-LACTAMASES” (Oxford University Innovation Limited, priority 2021, published 2024) come the findings set out here.

Assay type in all cases: biochemical
One assay concerns the target VIM-1 (Pseudomonas aeruginosa, UniProt A0A0F7KYQ8). Briefly: MBL inhibition, FC-5 fluorescence assay, VIM-1. As to the method:
(§1) Inhibitors were tested using a panel of the clinically relevant B1 MBLs (NDM-1, VIM-1, -2 and IMP-1). Activities were assayed by monitoring the release of a fluorophore following the enzymatic breakdown of the cephalosporin FC-5 (https://pubs.acs.org/doi/abs/10.1021/jm400769b). FC-5 assays were conducted in clear bottomed 384 black well microplates (Greiner); the initial rate of reaction was assessed by monitoring the fluorescence intensity (λex=380 nm and λem=460 nm) using a Pherstar FS (BMG LabTech) plate reader. Initial rates of reaction were determined and dose-response analyses conducted in GraphPad Prism. Dose-response curves were fitted using the log(inhibitor) vs normalized response—variable slope model of GraphPad Prism 12. Each concentration point for routine screening was conducted with 4 intra-plate replicates.

A further assay addresses VIM-2 (Escherichia coli, UniProt Q5U7L7). The assay can be described thus: MBL inhibition, FC-5 fluorescence assay, VIM-2. As to the method:
as §1

The next assay addresses NDM-1 (Klebsiella pneumoniae, UniProt C7C422). Briefly: MBL inhibition, FC-5 fluorescence assay, NDM-1. The protocol: as §1
In another assay the target is IMP-1 (Serratia marcescens, UniProt P52699). Briefly: MBL inhibition, FC-5 fluorescence assay, IMP-1. As to the method:
as §1

The mark [1] stands for this setting: FC-5 cephalosporin substrate, ranges of obtained pIC50, read-out: pIC50 VIM-1 (converted).
The mark [2] stands for this setting: FC-5 cephalosporin substrate, ranges of obtained pIC50, read-out: pIC50 VIM-2 (converted).
[3] abbreviates: FC-5 cephalosporin substrate, fluorescence, ranges of obtained pIC50, read-out: pIC50 NDM-1 (converted).
The mark [4] stands for this setting: FC-5 cephalosporin substrate, fluorescence, ranges of obtained pIC50, read-out: pIC50 IMP-1 (converted).
Setting [5] is: pIC50 VIM-1, FC-5 cephalosporin substrate, ranges of obtained pIC50.
Where [6] appears, read: pIC50 VIM-2, FC-5 cephalosporin substrate, ranges of obtained pIC50.

Chain of IMP-1 (P52699 19-246, looked up, species assumed): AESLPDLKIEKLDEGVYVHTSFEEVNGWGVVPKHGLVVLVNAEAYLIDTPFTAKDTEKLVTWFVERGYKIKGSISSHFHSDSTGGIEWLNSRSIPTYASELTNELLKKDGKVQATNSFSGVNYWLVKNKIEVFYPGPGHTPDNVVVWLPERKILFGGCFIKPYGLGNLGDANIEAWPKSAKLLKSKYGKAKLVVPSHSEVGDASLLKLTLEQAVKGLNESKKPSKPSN
Chain of NDM-1 (C7C422 29-270, looked up, species assumed): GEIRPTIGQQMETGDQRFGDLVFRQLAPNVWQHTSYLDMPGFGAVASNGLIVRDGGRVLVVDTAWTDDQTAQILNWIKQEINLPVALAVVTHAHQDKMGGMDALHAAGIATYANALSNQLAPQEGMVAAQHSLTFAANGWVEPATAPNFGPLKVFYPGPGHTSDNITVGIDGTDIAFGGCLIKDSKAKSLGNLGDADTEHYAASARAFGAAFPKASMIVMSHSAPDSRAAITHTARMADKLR

For the compound `CC(c1cccc2c(-c3ccc(CS(C)(=O)=O)c(F)c3)c(C(=O)O)[nH]c12)n1cc(CCCNC(=N)N)oc1=O` (stereo not drawn) [IC-73, 3-(3-Fluoro-4-((methylsulfonyl)methyl)phenyl)-7-(1-(5-(3-guanidinopropyl)-2-oxooxazol-3(2H)-yl)ethyl)-1H-indole-2-carboxylic acid hydrochloride], the IC50 is 1 to 10 nM at VIM-1 (setting [1]), 1 to 10 nM on VIM-2 (setting [2]), 0.1 to 1 nM at NDM-1 (setting [3]) and above 10 nM at IMP-1 (setting [4]).
With `CC(c1cccc2c(-c3ccc(CS(C)(=O)=O)c(F)c3)c(C(=O)O)[nH]c12)n1cc(CCCN(C)C)oc1=O` (stereo not drawn) [IC-75, 7-(1-(5-(3-(Dimethylamino)propyl)-2-oxooxazol-3(2H)-yl)ethyl)-3-(3-fluoro-4-((methylsulfonyl)methyl)phenyl)-1H-indole-2-carboxylic acid], the IC50 on VIM-1 (setting [1]) is 1 to 10 nM; at VIM-2 (setting [2]), 1 to 10 nM; at NDM-1 (setting [3]) it was 0.1 to 1 nM; on IMP-1 (setting [4]), above 10 nM.
Turning to `CC(c1cccc2c(-c3ccc(CS(C)(=O)=O)c(F)c3)c(C(=O)O)[nH]c12)n1cc(CCC[N+](C)(C)C)oc1=O` (stereo not drawn) [IC-76, 3-(3-(1-(2-carboxy-3-(3-fluoro-4-((methylsulfonyl)methyl)phenyl)-1H-indol-7-yl)ethyl)-2-oxo-2,3-dihydrooxazol-5-yl)-N,N,N-trimethylpropan-1-aminium], the IC50 was above 10 nM at VIM-1 (setting [5]), above 10 nM against VIM-2 (setting [6]), 1 to 10 nM against NDM-1 and above 10 nM on IMP-1.
As to `CC(c1cccc2c(-c3ccc(CS(C)(=O)=O)c(F)c3)c(C(=O)O)[nH]c12)n1cc(CO)oc1=O` (stereo not drawn) [IC-78, 3-(3-Fluoro-4-((methylsulfonyl)methyl)phenyl)-7-(1-(5-(hydroxymethyl)-2-oxooxazol-3(2H)-yl)ethyl)-1H-indole-2-carboxylic acid], the IC50 was above 10 nM at VIM-1 (setting [1]), above 10 nM at VIM-2 (setting [2]), 1 to 10 nM at NDM-1 (setting [3]) and above 10 nM on IMP-1 (setting [4]).
Consider `CC(c1cccc2c(-c3ccc(CS(C)(=O)=O)c(F)c3)c(C(=O)O)[nH]c12)n1cc(CN2CC[C@H](N)C2)oc1=O` (stereo partly drawn) [IC-81, 7-[1-[5-[[(3S)-3-Aminopyrrolidin-1-yl]methyl]-2-oxo-oxazol-3-yl]ethyl]-3-[3-fluoro-4-(methylsulfonylmethyl)phenyl]-1H-indole-2-carboxylic acid], for which the IC50 is 1 to 10 nM at VIM-1 (setting [1]), 1 to 10 nM on VIM-2 (setting [2]), 0.1 to 1 nM on NDM-1 (setting [3]) and above 10 nM at IMP-1 (setting [4]).
In the case of `CC(c1cccc2c(-c3ccc(CS(C)(=O)=O)c(F)c3)c(C(=O)O)[nH]c12)n1cc(CN2CC[C@@H](N)C2)oc1=O` (stereo partly drawn) [IC-82, 7-[1-[5-[[(3R)-3-Aminopyrrolidin-1-yl]methyl]-2-oxo-oxazol-3-yl]ethyl]-3-[3-fluoro-4-(methylsulfonylmethyl)phenyl]-1H-indole-2-carboxylic acid], the IC50 on VIM-1 (setting [1]) was 1 to 10 nM; on VIM-2 (setting [2]), 0.1 to 1 nM; at NDM-1 (setting [3]) it was 0.1 to 1 nM; on IMP-1 (setting [4]), above 10 nM.
Turning to `CS(=O)(=O)Cc1ccc(-c2c(C(=O)O)[nH]c3c(COCc4ccc(CN)cc4)cccc23)cc1F` [IC-85, 7-(((4-(Ammoniomethyl)benzyl)oxy)methyl)-3-(3-fluoro-4-((methylsulfonyl)methyl)phenyl)-1H-indole-2-carboxylate], the IC50 is above 10 nM on VIM-1 (setting [1]), above 10 nM at VIM-2 (setting [2]), 0.1 to 1 nM at NDM-1 (setting [3]) and above 10 nM at IMP-1 (setting [4]).
For `CC(OCc1cnn[nH]1)c1cccc2c(-c3ccc(CS(C)(=O)=O)c(F)c3)c(C(=O)O)[nH]c12` (stereo not drawn) [IC-91, 7-(1-((1H-1,2,3-triazol-5-yl)methoxy)ethyl)-3-(3-fluoro-4-((methylsulfonyl)methyl)phenyl)-1H-indole-2-carboxylic acid], the IC50 at VIM-1 (setting [1]), at VIM-2 (setting [2]), at NDM-1 (setting [3]) and on IMP-1 (setting [4]) was above 10 nM each time.
For the compound `CC(Nc1ncc(CCCN)o1)c1cccc2c(-c3ccc(CS(C)(=O)=O)c(F)c3)c(C(=O)O)[nH]c12` (stereo not drawn) [IC-93, 7-(1-((5-(3-Aminopropyl)oxazol-2-yl)amino)ethyl)-3-(3-fluoro-4-((methylsulfonyl)methyl)phenyl)-1H-indole-2-carboxylic acid], the IC50 at VIM-1 (setting [1]) was above 10 nM; at VIM-2 (setting [2]), 1 to 10 nM; at NDM-1 (setting [3]), 1 to 10 nM; on IMP-1 (setting [4]) it was above 10 nM.
As for `CC(Nc1ncc(CCN)o1)c1cccc2c(-c3ccc(CS(C)(=O)=O)c(F)c3)c(C(=O)O)[nH]c12` (stereo not drawn) [IC-94, 7-(1-((5-(2-aminoethyl)oxazol-2-yl)amino)ethyl)-3-(3-fluoro-4-((methylsulfonyl)methyl)phenyl)-1H-indole-2-carboxylic acid], the IC50 is above 10 nM at VIM-1 (setting [1]), 1 to 10 nM at VIM-2 (setting [2]), 1 to 10 nM at NDM-1 (setting [3]) and above 10 nM on IMP-1 (setting [4]).
On to `CC(OC(=O)Nc1ccc(CN)cc1)c1cccc2c(-c3ccc(CS(C)(=O)=O)c(F)c3)c(C(=O)O)[nH]c12` (stereo not drawn) [IC-96, 7-(1-(((4-(Aminomethyl)phenyl)carbamoyl)oxy)ethyl)-3-(3-fluoro-4-((methylsulfonyl)methyl)phenyl)-1H-indole-2-carboxylic acid], for which the IC50 was above 10 nM at VIM-1 (setting [1]), 1 to 10 nM at VIM-2 (setting [2]), 1 to 10 nM at NDM-1 (setting [3]) and above 10 nM at IMP-1 (setting [4]).
`CC(c1cccc2c(-c3ccc(CS(C)(=O)=O)c(F)c3)c(C(=O)O)[nH]c12)N1C(=O)c2cc(O)c(O)cc2C1=O` (stereo not drawn) [IC-98, 7-[1-(5,6-Dihydroxy-1,3-dioxo-2,3-dihydro-1H-isoindol-2-yl)ethyl]-3-[3-fluoro-4-(methanesulfonylmethyl)phenyl]-1H-indole-2-carboxylic acid]: the IC50 at VIM-1 (setting [1]), at VIM-2 (setting [2]), at NDM-1 (setting [3]) and at IMP-1 (setting [4]) was above 10 nM in each case.
For `CC(NC(=O)Oc1ccc(CN)cc1)c1cccc2c(-c3ccc(CS(C)(=O)=O)c(F)c3)c(C(=O)O)[nH]c12` (stereo not drawn) [IC-101, 7-(1-(((4-(aminomethyl)phenoxy)carbonyl)amino)ethyl)-3-(3-fluoro-4-((methylsulfonyl)methyl)phenyl)-1H-indole-2-carboxylic acid], the IC50 against VIM-1 (setting [5]) is above 10 nM; against VIM-2 (setting [6]), 1 to 10 nM; at NDM-1, 1 to 10 nM; on IMP-1, above 10 nM.
On to `CC(NC(=O)Nc1ccc(CN)cc1)c1cccc2c(-c3ccc(CS(C)(=O)=O)c(F)c3)c(C(=O)O)[nH]c12` (stereo not drawn) [IC-102, 7-(1-(3-(4-(aminomethyl)phenyl)ureido)ethyl)-3-(3-fluoro-4-((methylsulfonyl)methyl)phenyl)-1H-indole-2-carboxylic acid], for which the IC50 at VIM-1 (setting [1]) was above 10 nM; on VIM-2 (setting [2]) it was 1 to 10 nM; at NDM-1 (setting [3]), 1 to 10 nM; at IMP-1 (setting [4]), above 10 nM.
Take `C[C@@H](c1cccc2c(-c3ccc(CS(C)(=O)=O)c(F)c3)c(-c3nnn[nH]3)[nH]c12)N1C[C@]2(C[C@@H](CN)C2)OC1=O` [IC-107, (2S,4r)-2-(Aminomethyl)-7-((S)-1-(3-(3-fluoro-4-((methylsulfonyl)methyl)phenyl)-2-(1H-tetrazole-5-yl)-1H-indol-7-yl)ethyl)-5-oxa-7-azaspiro[3.4]octan-6-one]: the IC50 at VIM-1 (setting [1]) was 1 to 10 nM; at VIM-2 (setting [2]), above 10 nM; at NDM-1 (setting [3]) it was 1 to 10 nM; at IMP-1 (setting [4]) it was above 10 nM.
